In BindingDB's records for doi:10.1016/j.bioorg.2012.01.003 (Institute For Advanced Studies In Basic Sciences (Iasbs), 2012):

Molecular target: Acetylcholinesterase (Electrophorus electricus, UniProt O42275)
Assay: Inhibition Assay
Conditions: pH 8; 25 °C
Method: Inhibitory activity of synthesized alpha-unreidophosphonates were determined at 25 C by the colorimetric method of Ellman et al.

Acetylcholinesterase, sequence (O42275 whole entry): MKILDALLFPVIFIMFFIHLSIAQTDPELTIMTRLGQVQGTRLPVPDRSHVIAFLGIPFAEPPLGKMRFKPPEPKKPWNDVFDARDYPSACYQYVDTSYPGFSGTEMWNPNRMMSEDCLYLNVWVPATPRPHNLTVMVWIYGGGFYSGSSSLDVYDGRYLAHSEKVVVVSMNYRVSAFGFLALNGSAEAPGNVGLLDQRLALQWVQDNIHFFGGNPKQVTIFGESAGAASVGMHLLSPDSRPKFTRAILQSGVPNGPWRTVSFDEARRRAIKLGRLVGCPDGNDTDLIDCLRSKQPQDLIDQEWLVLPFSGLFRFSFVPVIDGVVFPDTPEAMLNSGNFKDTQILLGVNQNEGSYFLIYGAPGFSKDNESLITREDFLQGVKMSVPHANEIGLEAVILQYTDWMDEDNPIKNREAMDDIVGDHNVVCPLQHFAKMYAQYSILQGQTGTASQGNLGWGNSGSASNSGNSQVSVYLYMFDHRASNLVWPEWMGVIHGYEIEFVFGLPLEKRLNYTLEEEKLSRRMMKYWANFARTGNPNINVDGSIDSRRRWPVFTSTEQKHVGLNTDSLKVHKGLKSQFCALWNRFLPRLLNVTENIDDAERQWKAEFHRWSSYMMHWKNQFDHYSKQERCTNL

How did the IC50 turn out when CCOP(=O)(OCC)C(c1ccc(C(C)C)cc1)N(C(=O)Nc1ccccc1)c1ccccc1 (stereo not drawn) [Alpha-ureidophosphonate, b] was run?
Its IC50 is 230 µM.

Which IC50 does the source give for CCOP(=O)(OCC)C(c1ccccc1)N(C(=O)Nc1ccccc1)c1ccccc1 (stereo not drawn) [Alpha-ureidophosphonate, a] here?
Its IC50 is 172 µM.

For CCOP(=O)(OCC)C(c1ccc(C)cc1)N(Cc1ccccc1)C(=O)Nc1ccccc1 (stereo not drawn) [Alpha-ureidophosphonate, i], which IC50 is on record?
The IC50 was 2.23 µM.

How did the IC50 turn out when CCOP(=O)(OCC)C(c1ccc([N+](=O)[O-])cc1)N(C(=O)Nc1ccccc1)c1ccccc1 (stereo not drawn) [Alpha-ureidophosphonate, d] was run?
Its IC50 is 811 µM.

With CCOP(=O)(OCC)C(c1ccc(F)cc1)N(C(=O)Nc1ccccc1)c1ccc(OC)cc1 (stereo not drawn) [Alpha-ureidophosphonate, g] as the molecule, how does the IC50 read?
The IC50 was 69.3 µM.

For CCOP(=O)(OCC)C(c1ccc(C)cc1)N(C(=O)Nc1ccccc1)C1CCCCC1 (stereo not drawn) [Alpha-ureidophosphonate, k], which IC50 is on record?
Its IC50 is 148 µM.

How did the IC50 turn out when CCOP(=O)(OCC)C(c1ccc(C)cc1)N(C(=O)Nc1ccccc1)c1ccccc1 (stereo not drawn) [Alpha-ureidophosphonate, e] was run?
The IC50 was 441 µM.
